The record followed here is PubChem BioAssay AID720512 (Broad Institute, 2013).

The source made the active and inactive calls. The rule behind the calls is not given here. Bounds are passed on as bounds.

The target in the first assay is Toxin B (TcdB) glycohydrolase, Clostridioides difficile 630. As to the kind of experiment: TcdB glycohydrolase inhibitors, dose response, biochemical, cherry-pick, plate reader (AID 720512). Conditions: recombinant TcdB glycohydrolase activity.
Regarding `CCCNC(=O)N1CC[C@@H]2[C@@H](CO)N(C)c3ccc(-c4ccc(F)cc4)cc3[C@@H]21`, the AC50 was > 42 µM (inactive).

`CCCNC(=O)C[C@H]1CC[C@@H]2[C@@H](COc3ccc(NC(=O)c4ccc(Cl)cc4)cc3C(=O)N2C)O1`: the AC50 is > 39 µM (inactive).

Take `Cn1c(=O)c2[nH]c(=S)n(Cc3ccccc3)c2n(C)c1=O`: the concentration at half-maximal activity (AC50) was 18.2 µM.

`Nc1ccc(OCCCc2c(N)nc(N)nc2N)cc1`: the AC50 is > 39 µM (inactive).

Regarding `COCC(=O)N1CC[C@@H]2[C@H]1c1cc(-c3ccc(OC)cc3)ccc1N(C)[C@H]2CO`, the AC50 was > 39 µM (inactive).

The same assay, now with this note: recombinant TcdB glycohydrolase activity, at 3.5 µM (top of the series).
In the case of `CO[C@@H]1CN(C)C(=O)c2cc(NC(=O)NC(C)C)ccc2OC[C@@H](C)N(S(C)(=O)=O)C[C@H]1C`, the “activity change, negative = inhibition” value is “inactive”.

The assay is the same for the next values; noted with them: recombinant TcdB glycohydrolase activity, at 19.5 µM (top of the series).
Consider `CCCNC(=O)Nc1ccc2c(c1)C(=O)N(C)[C@H]1CC[C@H](CC(=O)NC3CCC3)O[C@@H]1CO2`, for which the “activity change, negative = inhibition” value was “inactive”.

Take `O=C(CSc1ccc2nnc(-c3ccc(F)cc3)n2n1)N1CCOCC1`: the “activity change, negative = inhibition” value is “inactive”.

With `O=C(OCn1nnc2ccccc2c1=O)c1cc2ccccc2o1`, the “activity change, negative = inhibition” value is “inactive”.

In the case of `COc1cc(/C=C/c2sc3ccccc3[n+]2CCCS(=O)(=O)[O-])ccc1O`, the “activity change, negative = inhibition” value is “inactive”.

As for `COc1ccc(NC(=O)CN(C)C(=O)c2cccc(NS(=O)(=O)c3ccc(Br)cc3)c2)cc1`, the “activity change, negative = inhibition” value was “inactive”.

Regarding `CC(C)Cc1[nH]c(=O)c(C#N)c2c1CCCC2`, the “activity change, negative = inhibition” value is “inactive”.

With `C=CC[C@@H](CC(=O)N(CCO)Cc1ccccc1)C(=O)NC[C@@H](OC(=O)[C@@H](CC=C)CC(=O)OC(C)(C)C)c1ccccc1`, the “activity change, negative = inhibition” value was “inactive”.

`Cc1cccc(CN2CCN(c3ncccn3)CC2)c1`: the “activity change, negative = inhibition” value is “inactive”.

With `CS(=O)(=O)Nc1cccc(C2=NN(C(=O)c3ccccc3)C(c3cccs3)C2)c1` (centres undefined), the “activity change, negative = inhibition” value was “inactive”.

Turning to `COC(=O)c1ccc(C23CC4(C2)[C@H](CN(Cc2ccc(C(F)(F)F)cc2)[C@@H]4c2ccccc2)C3c2ccc(Cl)nc2)cc1` (some centres undefined), the “activity change, negative = inhibition” value is “inactive”.

In the case of `Cc1[nH]nc(-c2ccc(O)cc2O)c1Oc1ccccc1`, the “activity change, negative = inhibition” value is “inactive”.

With `O=C(Nc1ccc(O)cc1)/C(=C/c1ccco1)NC(=O)c1ccccc1`, the “activity change, negative = inhibition” value was “inactive”.

`Fc1ccc(-c2nc3ccc(Br)cn3c2Cc2ccccc2)cc1`: the “activity change, negative = inhibition” value is “inactive”.

As to `COC(=O)C1=C(c2ccc(OCc3ccccc3)cc2)C[C@@H]2CC[C@H]1N2C(=O)NCCCc1ccccc1`, the “activity change, negative = inhibition” value was “inactive”.

On to `COc1ccc(/C=C\c2onc(C)c2S(=O)(=O)N2CCC(C(=O)NCCC(C)C)CC2)cc1`, for which the “activity change, negative = inhibition” value is “inactive”.

Take `O=C(Nc1ccc(N2CCOCC2)c(Cl)c1)c1ccc(F)cc1`: the “activity change, negative = inhibition” value was “inactive”.

Take `Cc1ccc(S(=O)(=O)N2CC(CO)=CCC2c2ccccc2)cc1` (centres undefined): the “activity change, negative = inhibition” value was “inactive”.

As to `O=C(O)c1ccc(-c2nnc(-c3ccccc3)o2)cc1`, the “activity change, negative = inhibition” value is “inactive”.

For the compound `CS(=O)(=O)N1CCc2cc(C(=O)Nc3ccc(O)cc3)ccc21`, the “activity change, negative = inhibition” value is “inactive”.

Turning to `CCN1CCN(C(=O)C2=CC(c3ccc(OC)cc3)=NS(=O)(=O)N2C)CC1`, the “activity change, negative = inhibition” value was “inactive”.

Consider `Cc1onc(-c2ccccc2Cl)c1C(=O)Nc1cnn(Cc2ccccc2)c1`, for which the “activity change, negative = inhibition” value was “inactive”.

Turning to `CN(C)c1ccc(C(=S)N2CCN(C(=S)Nc3ccc(Cl)cc3)CC2)cc1`, the “activity change, negative = inhibition” value was “inactive”.

For `Cc1ccc(Cc2c(-c3ccc(C)cc3)nc3ccc(Cl)cn23)cc1`, the “activity change, negative = inhibition” value is “inactive”.

With `Nc1ccccc1-c1nc2ccncc2[nH]1`, the “activity change, negative = inhibition” value is “inactive”.

Take `COC(=O)[C@H]1C[C@@H]1[C@H](NP(=O)(c1ccccc1)c1ccccc1)c1ccccc1`: the “activity change, negative = inhibition” value was “inactive”.

As to `Cc1ccc(S(=O)(=O)Nc2cccnc2Oc2ccc(Cl)cc2)cc1`, the “activity change, negative = inhibition” value is “inactive”.

As to `CCOc1ccccc1NC(=O)CCNS(=O)(=O)c1cccc2nonc12`, the “activity change, negative = inhibition” value was “inactive”.

As for `COc1cc(Cc2ccc(N)c(OC)c2)ccc1N`, the “activity change, negative = inhibition” value is “inactive”.

With `COc1ccc(C(CNC(=O)c2oc3ccc(OC)cc3c2C)N2CCCC2)cc1` (centres undefined), the “activity change, negative = inhibition” value is “inactive”.

As for `CCN1CCN(c2oc(-c3ccccc3C)nc2S(=O)(=O)c2ccccc2)CC1`, the “activity change, negative = inhibition” value was “inactive”.

As to `Cc1ccc(S(=O)(=O)Oc2ccccc2/C=C2\SC(=O)NC2=O)cc1`, the “activity change, negative = inhibition” value is “inactive”.

Consider `O=C(O)c1ccc(-n2nnc3ccccc32)c([N+](=O)[O-])c1`, for which the “activity change, negative = inhibition” value is “inactive”.

Turning to `CS(=O)(=O)N(CC(=O)Nc1ccc(S(=O)(=O)N2CCOCC2)cc1)c1ccccc1Br`, the “activity change, negative = inhibition” value is “inactive”.

With `CCCSc1nc2c([nH]1)c(=O)n(C)c(=S)n2C`, the “activity change, negative = inhibition” value is “inactive”.

As for `COC(=O)C1=C[C@@H](C(=O)OC)[C@@H]2C3=C(C(=O)[C@]2(C)NC(=O)c2ccccc2)[C@H](C)n2c(=O)n(C)c(=O)n2[C@@H]3C1`, the “activity change, negative = inhibition” value is “inactive”.

For the compound `COc1cccc(C(=O)COC(=O)c2ccc(NC(=O)c3ccccc3)cc2)c1`, the “activity change, negative = inhibition” value was “inactive”.

`COc1ccc(OC)c2sc(NNC(=O)C3COc4ccccc4O3)nc12` (centres undefined): the “activity change, negative = inhibition” value is “inactive”.

Turning to `COc1ccc(NS(=O)(=O)c2cc(N=Nc3c(O)[nH]c(=O)[nH]c3=O)ccc2Cl)cc1`, the “activity change, negative = inhibition” value is “inactive”.

For the compound `Cc1ccc(CSc2nc3nc(C)cc(C)c3c(=O)[nH]2)cc1`, the “activity change, negative = inhibition” value is “inactive”.

As for `Fc1ccccc1Nc1n[nH]c(=S)s1`, the “activity change, negative = inhibition” value is “inactive”.

As for `O=c1c2ccccc2nc(/C=C/c2ccc(O)cc2)n1-c1ccccc1O`, the “activity change, negative = inhibition” value is “inactive”.

Turning to `CC(=O)Nc1ccc(S(=O)(=O)Nc2nc3ccccc3nc2-n2ccc(=NC(=O)c3ccc(F)cc3)cc2)cc1`, the “activity change, negative = inhibition” value is “inactive”.

`CCOC(=O)c1cc([N+](=O)[O-])sc1N`: the “activity change, negative = inhibition” value was “inactive”.

For the compound `O=c1[nH]c(/C=C\c2ccc(O)cc2)nc(O)c1[N+](=O)[O-]`, the “activity change, negative = inhibition” value was “inactive”.

Regarding `NNC(=O)CCc1nc2ccc(O)cc2[nH]1`, the “activity change, negative = inhibition” value was “inactive”.

Take `C[C@@H]1C=C[C@](Cc2ccccc2)(C(=O)NCC2CC2)N1C(=O)c1ccccc1`: the “activity change, negative = inhibition” value was “inactive”.

In the case of `O=c1c2ccc(Cl)cc2[nH]c(=S)n1-c1cccnc1`, the “activity change, negative = inhibition” value is “inactive”.

`Cn1cnnc1SCC(=O)NC1CCCCC1`: the “activity change, negative = inhibition” value is “inactive”.

With `Cc1nn2cc(-c3cccc(Cl)c3)cnc2c1Br`, the “activity change, negative = inhibition” value is “inactive”.

With `Oc1ccc(/C=N/n2cc(-c3ccccc3)[nH]c2=S)cc1`, the “activity change, negative = inhibition” value was “inactive”.

On to `Cc1ccc(C(=O)COC(=O)c2cc(=O)[nH]c3ccccc23)cc1`, for which the “activity change, negative = inhibition” value was “inactive”.

Take `COc1ccc(S(=O)(=O)Nc2ccc3oc(C)c(C(=O)O)c3c2)cc1`: the “activity change, negative = inhibition” value is “inactive”.

`Cc1cc(/C=C(\C#N)C(=O)N2CCCCC2)cc(C)c1O`: the “activity change, negative = inhibition” value was “inactive”.

In the case of `O=C(O)c1ccccc1NC(=O)N1C[C@H]2C[C@@H](C1)c1cccc(=O)n1C2`, the “activity change, negative = inhibition” value was “inactive”.

Take `Cc1ccn(CCC(=O)NC2CC(C)(C)Cc3c2cnn3-c2ccccc2C)n1` (centres undefined): the “activity change, negative = inhibition” value was “inactive”.

Take `Cc1nn(CCOc2ccccc2)c(=O)n1-c1ccc(Cl)cc1`: the “activity change, negative = inhibition” value was “inactive”.

In the case of `CC(C)(C)N1[C@@H](CC(=O)O)c2cc(C(F)(F)F)ccc2S1(=O)=O`, the “activity change, negative = inhibition” value was “inactive”.

Turning to `CCCNC(=O)C1CC(=O)N(c2ccc(OCC)cc2)C1` (centres undefined), the “activity change, negative = inhibition” value was “inactive”.

In the case of `O=S(=O)(c1ccccc1)N1CCN(Cc2nnc(-c3ccccc3)o2)CC1`, the “activity change, negative = inhibition” value is “inactive”.

As for `CC(=O)Nc1ccc(NC(=O)[C@@H]2CCCN2S(=O)(=O)c2ccc3c(c2)OCCO3)cc1`, the “activity change, negative = inhibition” value was “inactive”.

Consider `Cc1ccc(/C=C/c2onc(C)c2S(=O)(=O)N2CCC(C(=O)N3CCCCC3)CC2)cc1`, for which the “activity change, negative = inhibition” value is “inactive”.

Take `Nc1c(Cl)ncnc1NCCc1ccc(O)cc1`: the “activity change, negative = inhibition” value was “inactive”.

In the case of `CC(OC(=O)C1=COCCO1)C(=O)c1ccc(Br)cc1` (centres undefined), the “activity change, negative = inhibition” value was “inactive”.

For `CC(C)OC(=O)c1cccc(C(=O)O)n1`, the “activity change, negative = inhibition” value is “inactive”.

As to `O=C(C[n+]1ccccc1)N/N=C/c1ccc(O)cc1`, the “activity change, negative = inhibition” value was “inactive”.

Consider `COc1ccc(C2=NS(=O)(=O)N(C)C(C(=O)NC(C)c3ccccc3)=C2)cc1OC` (centres undefined), for which the “activity change, negative = inhibition” value was “inactive”.

Take `O=c1oc(-c2ccc(Br)cc2)nc2ccccc12`: the “activity change, negative = inhibition” value is “inactive”.

With `O=C(Nc1sc2c(c1C(=O)O)CCCC2)c1ccc(Cl)cc1`, the “activity change, negative = inhibition” value was “inactive”.

For `C=CCc1ccc(O)c(-c2ccc(O)c(CC=C)c2)c1`, the “activity change, negative = inhibition” value was “inactive”.

As to `CCNC(=O)C[C@@H]1CC[C@H]2[C@H](COc3ccc(NC(C)=O)cc3C(=O)N2C)O1`, the “activity change, negative = inhibition” value is “inactive”.

Take `Cc1ccc(NC(=O)C2OCCc3ccccc32)cc1C` (centres undefined): the “activity change, negative = inhibition” value was “inactive”.

For the compound `Cc1ccc(S(=O)(=O)N2CCC(C(=O)OCC(=O)NCCc3ccccc3)CC2)cc1C`, the “activity change, negative = inhibition” value was “inactive”.

Still in this assay, the particulars now being: recombinant TcdB glycohydrolase activity, at 21 µM (top of the series).
For `C[C@@H]1CN([C@@H](C)CO)C(=O)c2c(c3ccccc3n2C)-c2ccccc2CO[C@@H]1CN(C)C`, the “activity change, negative = inhibition” value was “inactive”.
